From publication PMC11505594, “Design, Synthesis, and Anti-Melanogenic Activity of 2-Mercaptomethylbenzo[d]imidazole Derivatives Serving as Tyrosinase Inhibitors: An In Silico, In Vitro, and In Vivo Exploration” (Antioxidants, 2024)
Read-outs that look alike come from different tables or passages of the source. Values belong to the molecule of their own block, whether it stands above or below them.

Experiments:
[1] = test system: zebrafish larvae; assay: Melanogenesis (depigmentation) assay using zebrafish embryos; format: in vivo
Procedure: To assess depigmentation in vivo, wild-type zebrafish (Danio rerio) embryos were acquired free of charge from the Zebrafish Center for Disease Modeling (ZCDM) located at Chungnam National University in Daejeon, Republic of Korea. The zebrafish were raised in tanks maintained at 28 °C in the ZCDM. The tanks were oxygenated, and the tank lights were turned off for 10 h and on for 14 h. The zebrafish embryos used for in vivo depigmentation experiments were obtained through natural mating. The E3 solution for zebrafish embryos was prepared by dissolving 19.9 mg magnesium sulfate, 6.4 mg potassium chloride, 18.3 mg calcium chloride, and 146.1 mg sodium chloride in 500 mL distilled water. E3-MB (methylene blue) solution was prepared by adding MB to the E3 solution to create a 0.001% MB solution. The acquired zebrafish embryos were transferred to a culture dish containing the E3-MB solution. The culture dish was incubated at 28 °C until zebrafish embryos were used. Since zebrafish embryos are sensitive and can be easily killed by the chorion removal process 20 h post-fertilization (20 hpf), the chorion was removed at 24 hpf through treatment with pronase (Sigma-Aldrich, St. Louis, MO, USA). Five dechorionated zebrafish embryos were transferred to each well of 48-well microplates containing 250 μL E3 solution. […] Zebrafish larvae were anesthetized with tricaine at 76 hpf and placed on a 1% methylcellulose block to determine the degree of zebrafish larva depigmentation. Dorsal and lateral images of the zebrafish larvae were acquired using an SMZ745T microscope (Nikon, Tokyo, Japan). The pigmented areas of the dorsal and lateral images were obtained using CS analyzer 3.0 image analysis software (ATTO, Tokyo, Japan). Each assay (n = 7) was independently performed two times.

[2] = Reactive oxygen species removal activity assay (SIN-1, DCFH); details: test samples 40 μM; SIN-1 10 μM
Procedure: To assess reactive oxygen species (ROS) removal activity, a DCFH solution was prepared by mixing 50 μL DCFH-DA (1.25 mM), 50 μL esterase (0.6 unit/μL), and 4.9 mL phosphate buffer (50 mM) and maintained in the dark for 30 min. The SIN-1 solution (10 μL) was added to each well of a 96-black well that contained the test sample (10 μL; 2-MMBI derivatives 1–10 and Trolox [positive material]) and phosphate buffer (180 μL). 2-MMBI derivatives, Trolox, and SIN-1 were exposed at final concentrations of 40, 40, and 10 μM, respectively. The prepared DCFH solution (50 μL) was added to each well after 10 min. The fluorescence intensity of 2′,7′-dichlorofluorescein in the wells was measured at 535 nm using a microplate reader (Berthold Advances GmbH & Co., Bad Wildbad, Germany) with an excitation wavelength of 485 nm. Each experiment was conducted independently four times.

[3] = Copper(II) ion-chelating activity using pyrocatechol violet; details: test samples 100 μM, pH 6.0
Procedure: Copper(II) ion-chelating activity was measured using pyrocatechol violet reagent, a copper(II)-chelating agent. Copper(II) sulfate solution (10 μL, 1 mg/mL) was added to each well of a 96-well microplate containing acetic acid–sodium acetate buffer (280 μL, 50 mM [pH 6.0]), 2-MMBI derivative (1–10; 10 μL, 100 μM as a final concentration), and pyrocatechol violet (6 μL, 4 mM). Absorbance was measured at 632 nm using a VersaMax™ reader after the microplate was incubated for 20 min at 24 °C. Cu(II) ion-chelating activity (%) = 100 × [(Abscon − Abssam)/Abscon] where Abscon and Abssam are the absorbances of the control and samples, respectively. Each experiment was independently performed in triplicate.

[4] = test system: B16F10 cells; assay: Melanin content measurement assay in B16F10 cells; format: cell-based, murine; details: α-MSH 1 μM plus IBMX 200 μM, 72 h
Procedure: A 6-well plate containing 5 × 10^3 B16F10 cells per well was incubated at 37 °C and 5% CO2 for 1 day. […] After 1 h, 1 μM α-MSH and 200 μM IBMX were added to each well, and the plate was subsequently incubated at 37 °C and 5% CO2 for 72 h. The cells were exposed to […] 1N-NaOH solution and cultured at 60 °C for 1 h after washing with PBS. The lysates were transferred to each well of a 96-well plate, and the optical density at 405 nm was recorded using a VersaMax™ reader. […] Each assay was independently performed three times.

[5] = target: T1, mushroom TYR (Agaricus bisporus, UniProt C7FF04); assay: Kinetic studies on mushroom TYR (Lineweaver–Burk and Dixon plots); format: biochemical; details: L-dopa as substrate
Procedure: Kinetic experiments were performed to obtain Lineweaver–Burk plots for the analysis of mushroom TYR kinetics. Mushroom TYR solution (20 μL, 150 units/mL) was added to each well of a 96-well microplate containing 2-MMBI derivatives (10 μL; 0, 7.5, 15, and 30 μM for 1; 0, 5, 10, and 20 μM for 3 and 8; and 0, 12.5, 25, and 50 μM for 9) and a substrate solution (170 μL) composed of sodium phosphate buffer (17.2 mM; pH 6.5) and L-dopa (various concentrations: 0.5, 1, 2, 4, 8, and 16 mM). […] Lineweaver–Burk plots for each 2-MMBI derivative were obtained by plotting the value of 1/[substrate] against the value of (min/ΔOD475). Lineweaver–Burk plots were transformed into corresponding Dixon plots by plotting the value of (min/ΔOD475) against the value of the 2-MMBI derivative concentration.

[6] = target: T1, mushroom TYR; assay: Mushroom TYR activity assay with and without CuSO4; format: biochemical; details: 20 μM derivative, L-tyrosine
Procedure: To determine whether copper(II) ions influence the TYR-inhibitory activity of 2-MMBI derivatives, the effects of these derivatives on mushroom TYR activity were measured with and without CuSO4. Briefly, mushroom TYR aqueous solution (20 μL, 1 unit/μL) was mixed with 2-MMBI derivatives (1, 3, and 8–10) (10 μL, final concentration: 20 μM) and with the substrate solution (170 μL), comprising 17.2 mM phosphate buffer (pH 6.5) and 345 μM L-tyrosine, in the presence or absence of CuSO4 (50 μL, final concentration: 50 μM) in each well of a 96-well plate. […] Each assay was carried out independently in triplicate.

[7] = target: T2, B16F10 cellular TYR (Mus musculus, UniProt P11344); assay: TYR activity assay in B16F10 cells; format: cell-based, murine; details: 2, 5, and 10 μM; α-MSH 1 μM plus IBMX 200 μM; 72 h
T2 construct: The in situ cellular TYR activities of the 2-MMBI derivatives were investigated using B16F10 cells; endogenous in cells; host or cells: B16F10 murine melanoma cells stimulated with alpha-MSH and IBMX
T2 sequence (P11344 19-533): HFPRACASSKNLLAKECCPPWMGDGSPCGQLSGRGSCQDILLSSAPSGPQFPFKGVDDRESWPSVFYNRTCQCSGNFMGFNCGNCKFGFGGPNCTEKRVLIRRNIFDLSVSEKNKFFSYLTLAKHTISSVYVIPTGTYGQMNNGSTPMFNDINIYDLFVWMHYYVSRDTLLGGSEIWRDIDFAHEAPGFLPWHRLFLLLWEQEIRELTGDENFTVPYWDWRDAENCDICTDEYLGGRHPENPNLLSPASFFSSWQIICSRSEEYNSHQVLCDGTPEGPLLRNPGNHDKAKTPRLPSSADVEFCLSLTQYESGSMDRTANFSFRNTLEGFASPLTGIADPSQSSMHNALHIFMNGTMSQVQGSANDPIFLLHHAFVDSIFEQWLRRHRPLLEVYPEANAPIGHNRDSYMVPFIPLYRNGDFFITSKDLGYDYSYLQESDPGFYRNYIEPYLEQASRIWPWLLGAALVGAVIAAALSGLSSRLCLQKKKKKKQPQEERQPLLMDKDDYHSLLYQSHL
Procedure: A 6-well plate containing 5 × 10^3 B16F10 cells per well was incubated (37 °C and 5% CO2) for 1 day. […] Stimulators (1 μM α-MSH and 200 μM IBMX) were added after 1 h, and the plate was incubated (37 °C and 5% CO2) for 72 h. After washing with PBS, 100 μL lysis buffer consisting of 1% Triton X-100, 1 mM phenylmethylsulfonyl fluoride, and 50 mM sodium phosphate buffer (pH 6.5) in a volume ratio of 1:1:18 was added to each well. Following an incubation period of 30 min at −80 °C, the cell lysates were centrifuged at 12,000× g for 10 min at 4 °C to obtain the supernatants. […] Each assay was independently performed three times.

[8] = DPPH radical removal assay; details: 500 μM; 30 min in the dark
Procedure: An aliquot (20-μL DMSO solution) of a test sample (5 mM 2-MMBI derivatives 1–10 and 5 mM vitamin C [positive material]) was added to each well of a 96-well microplate containing 180 μL DPPH methanol solution (0.2 mM). After the mixture was left in the dark at 22 °C for 30 min, the optical density at 517 nm was recorded using a VersaMax™ reader. Each experiment was conducted independently in triplicate.

[9] = ABTS●+ scavenging assay; details: 100 μM
Procedure: A 2.45 mM K2S2O8 aqueous solution was mixed with a 7-mM ABTS aqueous solution in a 1:1 volume ratio. The mixture was left at 20 °C in the dark for 19 h. To adjust the adequate absorbance (0.70 ± 0.01) at 732 nm, the mixture was diluted with methanol. The diluted ABTS^●+ mixture (90 μL) in each well of a 96-well plate was mixed with a test sample (2-MMBI derivatives 1–10 and Trolox [positive material]; 10 μL in EtOH/DMSO [9/1 (v/v)] solution). All test samples were tested at a final concentration of 100 μM. Prior to the measurement of well optical density at 732 nm at 1-min intervals for 10 min using a VersaMax™ reader, the test sample-ABTS^●+ mixture was stored for 2 min in the dark. Each experiment was conducted independently in triplicate.

T1 sequence (C7FF04 2-392): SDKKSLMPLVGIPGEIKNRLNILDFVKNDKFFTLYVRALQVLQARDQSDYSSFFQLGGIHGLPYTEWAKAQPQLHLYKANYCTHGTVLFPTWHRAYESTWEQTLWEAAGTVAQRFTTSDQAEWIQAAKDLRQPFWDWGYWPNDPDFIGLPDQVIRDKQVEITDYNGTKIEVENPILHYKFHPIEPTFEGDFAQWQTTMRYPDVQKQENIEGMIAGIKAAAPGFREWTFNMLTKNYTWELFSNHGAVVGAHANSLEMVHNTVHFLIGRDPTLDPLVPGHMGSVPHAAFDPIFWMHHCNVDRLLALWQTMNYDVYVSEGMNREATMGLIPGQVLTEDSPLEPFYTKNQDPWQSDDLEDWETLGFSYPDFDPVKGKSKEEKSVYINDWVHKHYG

Compound: O=[N+]([O-])c1ccc2[nH]c(CS)nc2c1 [Derivative 6, (5-Nitro-1H-benzo[d]imidazol-2-yl)methanethiol]
depigmentation of zebrafish larvae at 0.03 and 0.1 mM ([1]; 0.03 and 0.1 mM, 48 h): did not exhibit significant depigmentation | ROS scavenging activity [2]: stronger ROS scavenging efficacy than the other derivatives | copper chelating activity [3]: 35%

inhibition mechanism [5]: mixed TYR inhibitors | inhibition at 20 µM ([6]; CuSO4 50 μM added externally, read-out: inhibition of mushroom TYR activity with CuSO4): 63% | inhibition at 20 µM ([6]; no CuSO4 added externally, read-out: inhibition of mushroom TYR activity without CuSO4): 86 to 89%
Compound: Cc1ccc2[nH]c(CS)nc2c1 [Derivative 8, (5-Methyl-1H-benzo[d]imidazol-2-yl)methanethiol]
depigmentation of zebrafish larvae at 0.03 mM ([1]; 0.03 mM, compared with kojic acid 20 mM, 48 h): much stronger depigmentation efficacy than kojic acid | effect on B16F10 cellular melanin production at 10 μM [4]: inhibited melanin production more strongly than kojic acid | effect on B16F10 cellular melanin production at three concentrations ([4]; 2, 5, and 10 μM): significantly decreased the melanin levels increased by the stimulators in a concentration-dependent manner | effect on B16F10 cellular TYR activity [7]: significantly reduced stimulator-enhanced cellular TYR activity in a dose-dependent manner

Compound: O=c1cc(CO)occ1O [Kojic acid, reference compound]
depigmentation of zebrafish larvae, kojic acid ([1]; 20 mM, 48 h, compared to control): significantly reduced melanin pigments | pigmentation area of zebrafish larvae (CS analyzer, dorsal and lateral views) ([1]; derivatives 0.03 and 0.1 mM, kojic acid 20 mM): significantly reduced pigmentation | effect on B16F10 cellular melanin production at 10 μM [4]: decreased the stimulator-induced melanin levels | copper chelating activity [3]: 27%

Compound: O=C1O[C@H]([C@@H](O)CO)C(O)=C1O [L-ASCORBIC acid, L-ascorbic acid]
DPPH radical scavenging activity [8]: 97%

Compound: Cc1c(C)c2c(c(C)c1O)CCC(C)(C(=O)O)O2 (stereo not drawn) [Trolox, reference compound]
ABTS●+ inhibition [9]: 99% | ROS scavenging activity [2]: highest ROS scavenging activity

Compound: NC(=S)Nc1ccccc1 [PTU, phenylthiourea]
copper chelating activity [3]: 37%
